This assay has as its system Bipolaris oryzae. Briefly: Inhibitory concentration against hyphal germination of Cochlibolus miyabeanus. In kind it is functional, organism-based.

Consider one molecule from ChEMBL document CHEMBL1141040, “Isolation, structure elucidation, preparation, and biological properties of neolambertellin” (Bioorg Med Chem Lett, 2005).

In brackets after ≈: the same amount, converted by molar mass.

In the case of `Cc1cc2cc(O)c3c(O)cccc3c2oc1=O`, half-maximal inhibition (IC50) required 100 µg/mL (≈ 413 µM).

The IC50 is the concentration that gives 50% inhibition.
